Data from patent US20190359653A1, “SELECTIVE PEPTIDE INHIBITORS OF FRIZZLED” (Genentech, Inc., priority 2016, published 2019).
“Also recorded” adds a separate entry of the source.

Columns and labels:
[1] = biological target: T1, Wnt3a binding to FZD4 CRD (Homo sapiens, UniProt Q9ULV1); assay: ELISA of biotinylated Wnt3a binding to FZD CRD-Fc; conditions: peptide 0-10 μM
T1 construct: hFZD4 CRD-Fc (cat no. 5847-FZ); purchased R&D systems 5847-FZ
T1 sequence (Q9ULV1 40-161 limits assumed): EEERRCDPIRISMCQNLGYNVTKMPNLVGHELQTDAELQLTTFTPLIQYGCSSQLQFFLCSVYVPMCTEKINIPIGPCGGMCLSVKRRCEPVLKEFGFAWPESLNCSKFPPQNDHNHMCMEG
Procedure: 384-well Maxisorp plates (cat. no. 464718; Thermo Scientific) were incubated with 30 μL of Neutravidin (cat. no. 31000, Thermo Scientific; 2 μg/mL in PBS) overnight at 4° C. Plates were then washed with PBST and blocked with PBS/1% BSA for 1 hour at RT and then washed with PBST prior to further processing. The binding assay was conducted in 96 well plates (cat no. 83007-374; VWR) which were blocked with PBS/1% BSA overnight at 4° C. hFZD4 CRD-Fc or hFZD7 CRD-Fc (63 ng/mL) were incubated with either Bio-Wnt3a (25 ng/mL) or Bio-Wnt5a (50 ng/mL) in the presence of 4-fold serial dilutions of the indicated peptide in PBS overnight at 4° C. All assays included hFZD9 CRD-mIgG2A protein as a negative control. hFZD7 CRD-His was suspended in 150 mM NaCl, 50 mM Tris-HCl at pH 7.5 and when used in assays an equal volume of the same buffer control was used. The binding assay mixtures were transferred to the Neutravidin coated plates and incubated for ˜1 h at RT. The wells were then washed with PBST, incubated with anti-hIgG1-HRP (1:10,000 suspended in PBS supplemented with 1% BSA; cat. no. A18817, Invitrogen), and washed again with PBST. The signal was developed with the addition of TMB reagent (following the manufacturer's recommendation; KPL; 50-76-00) for 15 min prior to the addition of an equal volume of 1 M phosphoric acid for 10 min Absorbance was measured at 450 nm using a Tekan M1000 plate reader. Values were collected and plotted using Prism Graphpad software. All assay conditions using peptides were at 1% DMSO final concentration.
Without being bound be theory, the substantial conformational change induced by dFz7-21 on hFZD7 CRD, as exemplified by the altered geometry of the lipid binding cavity, may facilitate the accommodation of two Wnt molecules simultaneously onto the hFZD7 CRD dimer (FIG. 4e-h).
Similar results were observed using Wnt3a. […] Binding of Wnt3a to FZD1 CRD, FZD2 CRD, and FZD7 CRD increased in the presence of dFz7-21 at concentrations below about 0.5 μM (FIG. 22E), with the most binding seen in the presence of 0.01 μM-0.05 μM dFz7-21. […] Fz7-21S had no effect on Binding of Wnt3a to any of the FZD CRDs tested (FIG. 22F).

[2] = test system: mouse intestinal organoids; assay: organoid budding / stem cell potential; assay type: cell-based; conditions: 48 h; dFz7-21 1-200 μM, Fz7-21S 200 μM; FIG. 18
Procedure: Mouse organoids were established from isolated crypts collected from the entire length of the small intestine and maintained as previously described (Sato et al. (2009) Nature 459, 262-265 (2009). All mouse derived tissue was performed according to the animal use guidelines of Genentech, a Member of the Roche Group, and the Institutional Animal Care and Use Committee, conforming to California State legal and ethical practices. Mouse sex was not selected for. Organoids were passaged at least twice per week and grown using IntestiCult Organoid growth media (cat. no. 06005; StemCell Technologies). […]
The organoid culture system faithfully recapitulates the intestinal epithelium including the presence of crypt-villus morphology. […] Therefore, stem cell function of the organoid population (a Wnt-dependent process) was quantitatively assessed by scoring the number of formed buds per organoid (Grabinger et al. (2014) “Ex vivo culture of intestinal crypt organoids as a model system for assessing cell death induction in intestinal epithelial cells and enteropathy.” Cell Death & Disease 5, e1228). […] Morphologies of representative mouse intestinal organoids after 48 h treatment are shown in FIGS. 17A-G. Next, organoid stem cell (SC) potential after peptide treatment was quantified. […]

Row | Sequence | effect on Wnt3a binding to FZD4 CRD [1] | budding events / organoid stem cell potential [2]
1 | LPSDDLEFWCHVMY [dFz7-21] | did not show any effect; also recorded: Neither Fz7-21 nor dFz7-21 had any effect | dramatically reduced
2 | LPSDDLEFWSHVMY [Fz7-21S, negative control] | showed no effect | did not show any major effects
